Measurements from PMC12154555, “Beyond natural flavonoids: exploring bioisosterism in design and synthesis of influenza endonuclease inhibitors” (RSC Medicinal Chemistry, 2025).
Where two headings read alike, the source gives them in different places.

Tests used:
[1] = Cytotoxicity assay (XTT), A549 cells; format: cell-based, human; details: human
Experimental: (§1) HEK 293T, A549 and MDCK cells were seeded at 3 × 10^3 cells per well in 100 μL DMEM complete medium. The following day, compounds were added to the corresponding wells, and the cells were incubated for 48 hours at 37 °C in 5% CO2. After incubation, cell viability was analyzed by XTT colorimetric assay. Then, 50 μL of a 50 : 1 mixture of XTT labelling reagent (1 mg mL^−1) and PMS electron-coupling reagent (0.383 mg mL^−1) were added to the wells and incubated for 4 hours at 37 °C in 5% CO2. The formation of orange formazan dye was measured on a Tecan Spark plate reader (Tecan Life Sciences, USA). The experiments were performed in biological triplicates, and the resulting data were analyzed using GraphPad Prism 10.0 software (GraphPad Software, San Diego, CA, USA).

influenza A polymerase [2] = biological target: T1, influenza A polymerase (Influenza A virus, UniProt P15659); experiment: cell-based; design: species or system influenza A/WSN/33 H1N1; details: read-out: EC50 minireplicon A549
[3] = Cytotoxicity assay (XTT), MDCK cells; format: cell-based, canine; details: dog
Experimental: as §1

[4] = tested on: influenza A (A/California/07/2009 (H1N1)); experiment: Cytopathic effect reduction assay in MDCK cells; format: cell-based; details: for EC50: read-out: EC50 antiviral testing MDCK
influenza A polymerase [5] = biological target: T1, influenza A polymerase; experiment: cell-based; format: cell-based, influenza A/WSN/33 H1N1; details: for EC50: read-out: EC50 minireplicon HEK 293T
[6] = tested on: influenza A (A/California/07/2009 (H1N1)); experiment: Cytopathic effect reduction assay in A549 cells; format: cell-based; details: for EC50: read-out: EC50 antiviral testing A549
[7] = Cytotoxicity assay (XTT), HEK 293T cells; format: cell-based; details: human
Experimental: as §1, with “CA, USA). […]” for “CA, USA).”
incubating serial dilutions of each tested compound and control compounds with the selected cell cultures. HEK 293T cells were seeded at 3x10^3 cells per well in 100 μl of DMEM complete medium. The following day the tested compounds were added to the corresponding well and the cells were incubated for 48 hours at 37 °C in 5% CO 2. After incubation, cell viability was analysed by XTT colorimetric assay. 50 μl of 50:1 mixture of XTT labelling reagent (1 mg/mL) and PMS electron-coupling reagent (0.383 mg/mL) were added to the wells and incubated for 4 hours at 37 °C in 5% CO2. The formation of orange formazan dye was measured on a Tecan Spark plate reader (Tecan Life Sciences, USA). The experiments were performed in biological triplicates, and the resulting data were analyzed using GraphPad Prism 10.0 software (GraphPad Software, San Diego, […]

A549 cells = experiment: Cytotoxicity assay (XTT), A549 cells; format: cell-based, human
Experimental: as §1

MDCK cells = experiment: Cytotoxicity assay (XTT), MDCK cells; format: cell-based, canine
Experimental: as §1

[8] = Influenza A virus, H1N1, MDCK, 72 h
[9] = Influenza A virus, H1N1, A549, 96 h

SMILES | CC50 at 48 h [1] | EC50 (influenza A polymerase [2]) | CC50 at 48 h [3] | EC50 [4, 8] | EC50 (influenza A polymerase [5]) | EC50 [6, 9] | CC50 at 48 h [7] | CC50 at 48 h ([1]; A549 cells, 48 hours, XTT, read-out: CC50 cytotoxicity A549) | CC50 at 48 h ([3]; MDCK cells, 48 hours, XTT, read-out: CC50 cytotoxicity MDCK) | EC50 minireplicon HEK 293T (influenza A polymerase [5]) | CC50 at 48 h ([7]; HEK 293T cells, 48 hours, XTT, read-out: CC50 cytotoxicity HEK 293T) | CC50 (A549 cells) | CC50 cytotoxicity A549 (A549 cells) | CC50 (MDCK cells) | CC50 cytotoxicity MDCK (MDCK cells) | EC50 antiviral testing MDCK [4] | EC50 [4] | EC50 antiviral testing A549 [6] | EC50 [6]
O=c1[nH]c(-c2cc(O)c3c(O)cc(O)cc3c2)cnc1O [Compound 34, 3-Hydroxy-6-(4,5,7-trihydroxynaphthalen-2-yl)pyrazin-2(1H)-one] | > 50 µM | 1.7 ± 0.4 µM | > 50 µM | > 100 µM | 1.8 ± 0.1 µM | > 100 µM | > 50 µM | – | – | – | – | – | – | – | – | – | – | – | –
O=c1cc(-c2ccc(O)c(O)c2)oc2cc(O)cc(O)c12 [Luteolin, luteolin, reference compound] | – | 9.2 ± 4.1 µM | – | > 100 µM | > 100 µM | 20 ± 2 µM | – | > 50 µM | > 50 µM | did not show any inhibition | > 50 µM | – | – | – | – | – | – | – | –
COC(=O)OCOc1c2n(ccc1=O)N([C@@H]1c3ccccc3SCc3c1ccc(F)c3F)[C@@H]1COCCN1C2=O [BMX, baloxavir marboxil, reference compound] | > 50 µM | – | > 50 µM | 0.03 ± 0.008 µM | – | 1.8 ± 0.4 µM | > 50 µM | – | – | – | – | – | – | – | – | – | – | – | –
O=C1c2c(O)c(=O)ccn2N([C@@H]2c3ccccc3SCc3c2ccc(F)c3F)[C@@H]2COCCN12 [BXA, baloxavir acid, reference compound] | – | – | – | – | – | – | – | – | – | – | – | 14 ± 3 µM | moderate cytotoxicity | 5 ± 1 µM | moderate cytotoxicity | […] | […] | […] | […]
Oc1cc(O)c2c(O)cc(-c3ccc(O)c(O)c3)cc2c1 [Compound 24, 6-(3,4-Dihydroxyphenyl)naphthalene-1,3,8-triol] | > 50 µM | 0.8 ± 0.2 µM | > 50 µM | > 100 µM | 1.1 ± 0.1 µM | 12 ± 1 µM | > 50 µM | – | – | – | – | – | – | – | – | – | – | – | –
O=c1[nH]c(-c2cc(O)c3c(O)cc(O)cc3c2)ncc1O [Compound 36, 5-Hydroxy-2-(4,5,7-trihydroxynaphthalen-2-yl)pyrimidin-4(3H)-one] | > 50 µM | 1.8 ± 0.5 µM | > 50 µM | > 100 µM | 1.4 ± 0.2 µM | 10 ± 1 µM | > 50 µM | – | – | – | – | – | – | – | – | – | – | – | –
O=c1cc(-c2cc(O)c3c(O)cc(O)cc3c2)[nH]cc1O [Compound 33, 5-Hydroxy-2-(4,5,7-trihydroxynaphthalen-2-yl)pyridin-4(1H)-one] | > 50 µM | 2.8 ± 0.6 µM | > 50 µM | 41 ± 13 µM | 2.1 ± 0.2 µM | 2.4 ± 0.4 µM | > 50 µM | – | – | – | – | – | – | – | – | – | – | – | –
